Source: US20230026696A1, “TRPV4 RECEPTOR LIGANDS” (UNIVERSITY OF UTAH RESEARCH FOUNDATION, priority 2019, published 2023)
Structures can show the parent of a compound that is named as a salt.

target: T1, human TRPV4 (Homo sapiens, UniProt Q9HBA0); assay: Fluorometric cell-based Ca2+ flux assay, HEK-293 cells stably overexpressing human TRPV4; settings: HEK-293 stably overexpressing human TRPV4; agonist GSK1016790A 30 nM
T1 construct: expressed in transfected cells
Experimental: Fluorometric cell-based Ca^2+ flux assays were performed to assess TRPV4 antagonist activity and determine potency (IC50 values) in human embryonic kidney-293 cells (HEK-293) that stably overexpress human TRPV4. The assays were performed according to methods described in: Deering-Rice, C. E., Johansen, M. E., Roberts, J. K., Thomas, K. C., Romero, E. G., Lee, J., Yost, G. S., Veranth, J. M., and Reilly, C. A. (2012), Mol. Pharmacol. 81(3), 411-419; Shapiro, D., Deering-Rice, C. E., Romero, E. G., Hughen, R. W., Light, A. R., Veranth, J. M., and Reilly, C. A. (2013), Chem Res. Toxicol., 26, 750-758; and Deering-Rice, C. E., Mitchell, V. K., Romero, E. G., Abdel Aziz, M. H., and Reilly, C. A. (2014), Pharmacol. Res. & Perspectives. 2(5), 1-10.
The HEK-293 cells stably overexpressing human TRPV4 were grown to confluence in 2% (w/v) gelatin-coated 96-well plates in DMEM:F12 media supplemented with 5% fetal bovine serum, 1× penicillin/streptomycin (Invitrogen) and Geneticin (300 μg/mL).
The HEK-293 cells were prepared for assay by replacing the growth media with a 1:1 solution of LHC-9 and Fluo 4-Direct (Invitrogen) reagent containing Fluo 4-AM, pluronic F-127, probenecid, and a proprietary quencher dye. The cells were then incubated at 37° C. for 1 h in a cell culture incubator. The cells were subsequently washed by replacing the loading solution with LHC-9 containing 1 mM water-soluble probenecid (Invitrogen), 750 μM Trypan Red (ATT Bioquest), and a test compound (at various concentrations). The cells were incubated for an additional 30 minutes at 37° C. to allow for Fluo 4-AM cleavage and activation, as well as equilibration to both the test compounds and Fluo 4.
An agonist treatment solution (90 nM GSK1016790A, a potent activator of TRPV4) was prepared in LHC9 at 3× concentration and 25 μL was added to 50 μL of media on the cells in 96 well plates, providing a final concentration of 30 nM. Changes in cellular fluorescence were monitored with a BMG Labtech NOVOStar fluorescence plate reader for 1 minute at 37° C. Data were quantified as the maximum rate of change in fluorescence intensity (max ΔF/s), corrected for media only treatment (negative control), and represented as the percentage of response relative to the no antagonist control. A minimum of three replicates were used for each treatment condition, with a minimum of 8 concentrations to derive the IC50 values reported for each antagonist. The IC50 values for each antagonist, which are shown in Table 4 below, were calculated according to methods described in the assays were performed according to methods described in: Deering-Rice, C. E., Johansen, M. E., Roberts, J. K., Thomas, K. C., Romero, E. G., Lee, J., Yost, G. S., Veranth, J. M., and Reilly, C. A. (2012), Mol. Pharmacol. 81(3), 411-419; Shapiro, D., Deering-Rice, C. E., Romero, E. G., Hughen, R. W., Light, A. R., Veranth, J. M., and Reilly, C. A. (2013), Chem Res. Toxicol., 26, 750-758; and Deering-Rice, C. E., Mitchell, V. K., Romero, E. G., Abdel Aziz, M. H., and Reilly, C. A. (2014), Pharmacol. Res. & Perspectives. 2(5), 1-10.

T1 sequence (Q9HBA0 whole entry): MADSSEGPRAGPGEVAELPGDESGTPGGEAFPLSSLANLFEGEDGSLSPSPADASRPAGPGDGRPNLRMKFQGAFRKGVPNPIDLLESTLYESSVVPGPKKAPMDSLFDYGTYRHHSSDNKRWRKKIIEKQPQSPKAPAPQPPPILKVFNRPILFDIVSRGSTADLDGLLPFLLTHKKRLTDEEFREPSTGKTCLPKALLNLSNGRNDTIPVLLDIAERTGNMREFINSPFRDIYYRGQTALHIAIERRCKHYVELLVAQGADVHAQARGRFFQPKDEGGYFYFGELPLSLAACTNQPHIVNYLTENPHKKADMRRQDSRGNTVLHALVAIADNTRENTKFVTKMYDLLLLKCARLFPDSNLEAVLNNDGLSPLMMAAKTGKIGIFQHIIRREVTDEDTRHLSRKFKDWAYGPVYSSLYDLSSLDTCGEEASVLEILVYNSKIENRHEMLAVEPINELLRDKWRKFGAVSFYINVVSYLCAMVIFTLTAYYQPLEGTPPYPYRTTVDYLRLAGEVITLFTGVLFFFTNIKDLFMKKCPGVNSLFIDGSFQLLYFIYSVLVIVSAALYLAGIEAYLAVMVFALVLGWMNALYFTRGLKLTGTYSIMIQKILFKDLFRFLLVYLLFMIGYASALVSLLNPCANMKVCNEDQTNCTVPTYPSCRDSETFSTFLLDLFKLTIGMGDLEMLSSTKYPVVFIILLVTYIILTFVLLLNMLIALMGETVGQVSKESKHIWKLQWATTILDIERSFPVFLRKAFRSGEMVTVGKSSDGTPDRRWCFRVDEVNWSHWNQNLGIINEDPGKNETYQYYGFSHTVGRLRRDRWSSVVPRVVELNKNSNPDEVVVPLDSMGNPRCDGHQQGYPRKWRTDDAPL

SMILES	IC50
Cc1nn(C)cc1S(=O)(=O)N1CC(CO)(COc2ccc(C#N)c(F)c2)C1 [Compound 66, 4-((1-((1,3-Dimethyl-1H-pyrazol-4-yl)sulfonyl)-3-(hydroxymethyl)azetidin-3-yl)methoxy)-2-fluorobenzonitrile]	10000 nM
COc1cc(C#N)c(F)cc1OCC1(CO)CN(S(=O)(=O)c2ccc(Cl)cc2Cl)C1 [Compound 108, 4-((1-((2,4-Dichlorophenyl)sulfonyl)-3-(hydroxymethyl)azetidin-3-yl)methoxy)-2-fluoro-5-methoxybenzonitrile]	528 nM
N#Cc1ccc(OCC2(CNCc3nccs3)CN(S(=O)(=O)c3ccc(Cl)cc3Cl)C2)cc1F [Compound 22, 4-((1-((2,4-dichlorophenyl)sulfonyl)-3-(((thiazol-2-ylmethyl)amino)methyl)azetidin-3-yl)methoxy)-2-fluorobenzonitrile hydrochloride]	117 nM
CS(=O)(=O)c1ccc(S(=O)(=O)N2CC(CO)(COc3ccc(C#N)c(F)c3)C2)cc1 [Compound 69, 2-Fluoro-4-((3-(hydroxymethyl)-1-((4-(methylsulfonyl)phenyl)sulfonyl)azetidin-3-yl)methoxy)benzonitrile]	5000 nM
N#CCCNCC1(COc2ccc(C#N)c(F)c2)CN(S(=O)(=O)c2ccc(Cl)cc2Cl)C1 [Compound 36, 4-((3-(((2-Cyanoethyl)amino)methyl)-1-((2,4-dichlorophenyl)sulfonyl)azetidin-3-yl)methoxy)-2-fluorobenzonitrile]	10 nM
N#Cc1ccc(OCC2(CNC[C@H]3CCCO3)CN(S(=O)(=O)c3ccc(Cl)cc3Cl)C2)cc1F [Compound 40, (R)-4-((1-((2,4-dichlorophenyl)sulfonyl)-3-((((tetrahydrofuran-2-yl)methyl)amino)methyl)azetidin-3-yl)methoxy)-2-fluorobenzonitrile hydrochloride]	13.4 nM
CNCCN(C)C(=O)C1(COc2ccc(C#N)cc2)CN(S(=O)(=O)c2ccc(Cl)cc2Cl)C1 [Compound 5, 3-((4-Cyanophenoxy)methyl)-1-((2,4-dichlorophenyl)sulfonyl)-N-methyl-N-(2-(methylamino)ethyl)azetidine-3-carboxamide]	2250 nM
N#Cc1cccc(OCC2(CO)CN(S(=O)(=O)c3ccc(Cl)cc3Cl)C2)c1 [Compound 89, 3-((1-((2,4-Dichlorophenyl)sulfonyl)-3-(hydroxymethyl)azetidin-3-yl)methoxy)benzonitrile]	1000 to 3000 nM
CCOC(=O)CCNCC1(COc2ccc(C#N)c(F)c2)CN(S(=O)(=O)c2ccccc2C#N)C1 [Compound 114, Ethyl 3-(((3-((4-cyano-3-fluorophenoxy)methyl)-1-((2-cyanophenyl)sulfonyl)azetidin-3-yl)methyl)amino)propanoate]	6.45 nM
N#Cc1ccc(OCC2(C(=O)O)CN(S(=O)(=O)c3ccc(Cl)cc3Cl)C2)cc1 [Compound 2, 3-((4-Cyanophenoxy)methyl)-1-((2,4-dichlorophenyl)sulfonyl)azetidine-3-carboxylic acid]	≥ 50000 nM
N#Cc1ccc(OCC2(CO)CN(S(=O)(=O)c3ccc(C(F)(F)F)cc3C#N)C2)cc1F [Compound 86, 4-((1-((2-Cyano-4-(trifluoromethyl)phenyl)sulfonyl)-3-(hydroxymethyl)azetidin-3-yl)methoxy)-2-fluorobenzonitrile]	22.3 nM
N#Cc1ccc(OCC2(CO)CN(S(=O)(=O)c3cc(Cl)cc(Cl)c3)C2)cc1F [Compound 68, 4-((1-((3,5-Dichlorophenyl)sulfonyl)-3-(hydroxymethyl)azetidin-3-yl)methoxy)-2-fluorobenzonitrile]	5000 nM

Further lines, results first:

IC50	SMILES
> 850 nM	COC(=O)c1ccc(S(=O)(=O)N2CC(CO)(COc3ccc(C#N)c(F)c3)C2)c(Cl)c1 [Compound 80, Methyl 3-chloro-4-((3-((4-cyano-3-fluorophenoxy)methyl)-3-(hydroxymethyl)azetidin-1-yl)sulfonyl)benzoate]
481 nM	N#Cc1ccc(OCC2(CO)CN(S(=O)(=O)c3ccc(C(F)(F)F)cc3Cl)C2)cc1F [Compound 59, 4-((1-((2-Chloro-4-(trifluoromethyl)phenyl)sulfonyl)-3-(hydroxymethyl)azetidin-3-yl)methoxy)-2-fluorobenzonitrile]
5000 nM	COC(=O)c1ccc(S(=O)(=O)N2CC(CO)(COc3ccc(C#N)c(F)c3)C2)cc1 [Compound 63, Methyl 4-((3-((4-cyano-3-fluorophenoxy)methyl)-3-(hydroxymethyl)azetidin-1-yl)sulfonyl)benzoate]
> 302 nM	N#Cc1ccc(OCC2(CO)CN(S(=O)(=O)c3ccc(Cl)cc3)C2)cc1F [Compound 84, 4-((1-((4-Chlorophenyl)sulfonyl)-3-(hydroxymethyl)azetidin-3-yl)methoxy)-2-fluorobenzonitrile]
23 nM	N#Cc1ccc(OCC2(NC(=O)CN)CN(S(=O)(=O)c3ccc(Cl)cc3Cl)C2)cc1F [Compound 55, 2-Amino-N-(3-((4-cyano-3-fluorophenoxy)methyl)-1-((2,4-dichlorophenyl)sulfonyl)azetidin-3-yl)acetamide]
> 2500 nM	Cc1ccccc1S(=O)(=O)N1CC(CO)(COc2ccc(C#N)c(F)c2)C1 [Compound 76, 2-Fluoro-4-((3-(hydroxymethyl)-1-(o-tolylsulfonyl)azetidin-3-yl)methoxy)benzonitrile]
472 nM	Cc1ccc(S(=O)(=O)N2CC(CO)(COc3ccc(C#N)c(F)c3)C2)c(C)c1 [Compound 62, 4-((1-((2,4-Dimethylphenyl)sulfonyl)-3-(hydroxymethyl)azetidin-3-yl)methoxy)-2-fluorobenzonitrile]
> 1000 nM	CCOc1cc(OCC2(CO)CN(S(=O)(=O)c3ccc(Cl)cc3Cl)C2)ccc1C#N [Compound 100, 4-((1-((2,4-Dichlorophenyl)sulfonyl)-3-(hydroxymethyl)azetidin-3-yl)methoxy)-2-ethoxybenzonitrile]
4.9 nM	N#Cc1ccc(OCC2(CO)CN(S(=O)(=O)c3ccccc3C#N)C2)cc1F [Compound 85, 4-((1-((2-Cyanophenyl)sulfonyl)-3-(hydroxymethyl)azetidin-3-yl)methoxy)-2-fluorobenzonitrile]
54 nM	N#Cc1ccc(S(=O)(=O)N2CC(CO)(COc3ccc(C#N)c(F)c3)C2)c(Cl)c1 [Compound 60, 4-((1-((2-Chloro-4-cyanophenyl)sulfonyl)-3-(hydroxymethyl)azetidin-3-yl)methoxy)-2-fluorobenzonitrile]
413 nM	N#Cc1ccc(OCC2(CO)CN(S(=O)(=O)c3ccccc3Cl)C2)cc1F [Compound 58, 4-((1-((2-Chlorophenyl)sulfonyl)-3-(hydroxymethyl)azetidin-3-yl)methoxy)-2-fluorobenzonitrile]
8.7 nM	N#Cc1ccc(OCC2(CN)CN(S(=O)(=O)c3ccc(Cl)cc3Cl)C2)cc1F [Compound 44, 4-((3-(Aminomethyl)-1-((2,4-dichlorophenyl)sulfonyl)azetidin-3-yl)methoxy)-2-fluorobenzonitrile]
1000 to 3000 nM	O=S(=O)(c1ccc(Cl)cc1Cl)N1CC(CO)(COc2ccc(F)c(F)c2)C1 [Compound 87, (1-((2,4-Dichlorophenyl)sulfonyl)-3-((3,4-difluorophenoxy)methyl)azetidin-3-yl)methanol]
18.7 nM	COCCNCC1(COc2ccc(C#N)c(F)c2)CN(S(=O)(=O)c2ccc(Cl)cc2Cl)C1 [Compound 21, 4-((1-((2,4-dichlorophenyl)sulfonyl)-3-(((2-methoxyethyl)amino)methyl)azetidin-3-yl)methoxy)-2-fluorobenzonitrile hydrochloride]
0.2 nM	CC(CO)CNCC1(COc2ccc(C#N)c(F)c2)CN(S(=O)(=O)c2ccc(Cl)cc2Cl)C1 (stereo not drawn) [Compound 34, 4-((1-((2,4-Dichlorophenyl)sulfonyl)-3-(((3-hydroxy-2-methylpropyl)amino)methyl)azetidin-3-yl)methoxy)-2-fluorobenzonitrile hydrochloride]
